# Data published in patent publication US20120315254A1, “METHODS AND COMPOSITIONS FOR ENHANCING FAT GRAFT SURVIVAL” (Sebana Medical Ltd., priority 2010, published 2012).
# Tests used:
# VEGF = assay: Plasma VEGF concentration and fat graft VEGF content (ELISA); assay type: in vivo, CD-1 nude mice; conditions: VEGF-treated (200 ng/100 μl PBS) vs PBS-treated fat grafts; week 15
# Procedure: (§1) The first study comprised 30 seven-week-old female CD-1 nude mice (Harlan, Jerusalem, Israel). These mice were housed in cages in a room with an artificial 12-h light/dark cycle at a constant temperature range (24±2° C.) and relative humidity (55±10%). The mice were acclimated for one week prior to the study, and fed a standard laboratory chow and water ad libitum. The 30 mice were randomly divided into three equal groups and treated as follows: Group 1 mice were injected with 1 ml of human fat and were treated with sterile PBS (control group). Group 2 mice were injected with 1 ml human fat and were treated with 1000 IU/kg EPO (low-dose EPO group). […]
# The duration of the study period of both experiments was 15 weeks from the start of fat transplantation. […] VEGF and EPO concentrations were determined in homogenates of samples of the fat grafts using commercial enzyme-linked immunosorbent assays (Quantikine® VEGF immunoassay Kit and Quantikine® WD® Erythropoietin Kit, R&D Systems, MN, USA) in accordance with the manufacturer's instructions.
# (§2) After 15 weeks, all mice were humanely killed and the fat grafts were carefully dissected from their scalps (FIG. 1C). Each fat graft was weighed and the volume of the fat graft was measured by the liquid overflow method as previously described [Ayhan et al. (2001) Aesthetic Plast Surg 25:338-342]. […]
# human fat grafts [1] = assay: Extent of apoptosis in fat grafts (TUNEL assay); assay type: in vivo, CD-1 nude mice; conditions: VEGF-treated (200 ng/100 μl PBS) vs PBS-treated fat grafts; week 15
# Procedure: The extent of apoptosis in all fat grafts was assessed by the terminal deoxyuridine triphosphate nick end labeling (TUNEL) assay using a commercial kit (ApopTag® Plus Fluorescein Kit, CHEMICON, CA, USA), in accordance with the manufacturer's instructions. Duplicates were carried out for each sample and were processed by fluorescence-activated cell sorting (FACS, Becton Dickinson, N.J., USA). Data was analyzed using the Macintosh CELLQuest software program (Becton Dickinson).
# [2] = tested on: bFGF, IGF-1, PDGF-BB, VEGFR-2, EPOR, MMP-2, PKB, phosphoPKB, caspase 3, cytochrome c; assay: Expression of angiogenic, survival and pro-apoptotic factors in fat grafts (Western blotting, immunohistochemistry); assay type: in vivo, CD-1 nude mice; conditions: VEGF-treated vs PBS-treated fat grafts, Western blot; week 15
# Procedure: (§3) Histological slides of the formalin-maintained samples were prepared and then stained with hematoxylin and eosin using standard procedures. Immunohistochemistry was performed using rabbit monoclonal antibodies against tissue CD31, VEGFR-2 and EPOR, and goat polyclonal IgG against VEGF (R&D Systems, Minneapolis Minn., USA), and CD68 (Dako, Glostrup, Denmark). The paraffin-embedded fat graft sections were incubated with the antibodies overnight at room temperature followed by incubation with appropriate secondary antibodies [Li et al. (2005) J Cell Biochem 95: 559-570]. Upon completion of the incubations, the specimens were counterstained with hematoxylin. Mouse IgG was used as a negative control. […]
# The expression levels of the angiogenic factors, bFGF, IGF-1, PDGF-BB VEGFR-2, EPOR and MMP-2, the cell survival factor PKB and phosphorylated PKB, and the pro-apoptotic factors caspase 3 and cytochrome c were determined in homogenates of the harvested fats grafts by Western blotting. […] The resultant bands were quantified by densitometry.
# human fat grafts [3] = assay: Histological analysis of the dissected fat grafts (grades 0 to 5); assay type: in vivo, CD-1 nude mice; conditions: grade on a scale of 0 to 5; VEGF 200 ng/100 μl PBS; week 15
# Procedure: The first study comprised 30 seven-week-old female CD-1 nude mice (Harlan, Jerusalem, Israel). These mice were housed in cages in a room with an artificial 12-h light/dark cycle at a constant temperature range (24±2° C.) and relative humidity (55±10%). The mice were acclimated for one week prior to the study, and fed a standard laboratory chow and water ad libitum. The 30 mice were randomly divided into three equal groups and treated as follows: Group 1 mice were injected with 1 ml of human fat and were treated with sterile PBS (control group). Group 2 mice were injected with 1 ml human fat and were treated with 1000 IU/kg EPO (low-dose EPO group). Group 3 mice were injected with 1 ml human fat and were treated with 5000 IU/kg EPO (high-dose EPO group). The fat was injected subcutaneously into the scalp using a 14G needle while the animals were manually restrained. Immediately following fat transplantation, the PBS-treated fat grafts were injected with 100 μl PBS (control group), and the EPO-treated fat grafts were injected with either 20 IU EPO/100 μl PBS (low-dose EPO group) or 100 IU EPO/100 μl PBS (high-dose EPO group) every three days for 18 days (a total of 6 injections). EPO was purchased as an injection ampoule (ARANESP®, Amgen AG, Zug, Switzerland) which contained 150 μg/ml (18,000 IU) of EPO.
# The second animal study comprised 20 seven-week-old female CD-1 nude mice, and differed from the first study in that the fat was treated with VEGF (2 μg/ml, Sigma Aldrich, Mo., USA) following implantation. 10 mice were injected with fat followed by 200 ng VEGF/100 μl PBS injections every three days for a total of 18 days. The remaining 10 mice made up a second control group that was treated in an identical manner to the control group in the first study. Post-operative analgesics and antibiotics were not administered to the mice in the two experiments.
# as §3
# [4] = tested on: CD31-positive endothelial cells; assay: Microvascular density (MVD, CD31) in fat grafts; assay type: in vivo, CD-1 nude mice
# Procedure: Quantification of macrophage infiltration in the fat grafts was estimated by counting the number of CD68-positive cells in five fields per fat graft in all fat graft sections. Microvascular density (MVD) in fat grafts was determined in five regions of interest where the CD31 antibody signal was the most intense in each section in all of the fat graft sections. The number of macrophages and blood vessels in each region was counted under a light microscope at 400× magnification. The assessment in each fat graft was made by calculating the mean result in two different sections per fat graft and five different fields of view per section.
# The paraffin-embedded fat graft sections were incubated overnight at room temperature with a monoclonal antibody against tissue CD31 (R&D Systems, Minneapolis Minn., USA) as previously described [Li et al. (2005) J Cell Biochem 95:559-570]. Upon completion of the incubation, the specimens were counterstained with hematoxylin. Mouse IgG was used as a negative control. The microvascular density (MVD) was determined in five regions of interest where the CD31 antibody signal was most intense. The number of blood vessels in each region was counted under a light microscope at […] magnification.
# [5] = tested on: human umbilical vein endothelial cells (HUVECs); assay: In vitro tube formation of HUVECs on matrigel; assay type: cell-based
# Procedure: The in vitro angiogenic potential of VEGF and EPO was measured by assessment of their ability to form tubes of endothelial cells on matrigel. To this end, human umbilical vein endothelial cells (HUVECs, LONZA, USA) were first cultured on fibronectin-coated 6-well plates in endothelial basal medium-2 (EBM-2, PromoCell, USA) until confluence and then the cells were treated with 0, 20 or 100 IU/ml EPO for 48 hours before their use in the assay (FIG. 7A). In a second experiment (FIG. 7B), HUVECs were exposed to 0, 100 IU/ml EPO or 200 ng/ml VEGF for 48 hours in EBM-2 with or without 0.25 mg/ml bevacizumab (Avastin®, Genentech, San Francisco, Calif., USA), a humanized monoclonal antibody that antagonizes the actions of VEGF. After 48 hours, the untreated HUVECs, the VEGF- and EPO-treated HUVECs, and the VEGF+bevacizumab- and EPO+bevacizumab-treated HUVECs were detached gently by 0.5% trypsin/EDTA, and then suspended in EBM-2. At the same time, frozen matrigel (Sigma Aldrich, St Louis Mo., USA) was thawed, and spread onto 96-well plates ([…]) at room temperature for 30 minutes to allow solidification. […] After 24 hours, the non-integrated cells were removed by washing and tube formation on the matrigel was assessed under a light microscope at 10× magnification. […]
# human fat grafts [6] = assay: Fat graft weight and volume 15 weeks after transplantation; assay type: in vivo, CD-1 nude mice; conditions: VEGF 200 ng/100 μl PBS every three days for 18 days; week 15; second experiment
# Source text: Fat was harvested from the thigh of a person by suction-assisted lipectomy under […] anesthesia. The fat was aspirated under local anesthesia using a 14-gauge blunt cannula, and then processed under sterile conditions for subsequent grafting into nude mice within two hours of its collection according to previously published protocols [Ullmann et al. (2005) Dermatol Surg 31:1304-7; Kurita et al. (2008) Plast Reconstr Surg 121:1033-1041].
# as §1, §2
# [7] = tested on: human umbilical vein endothelial cells (HUVECs); assay: HUVEC proliferation ([3H]-thymidine incorporation); assay type: cell-based; conditions: inhibitor exposure for 3 hours, without EPO
# Procedure: To investigate EPO-induced angiogenesis through mechanisms involving pro-angiogenic factors, the present inventor measured the proliferation of EPO-treated HUVECs in the presence of various pro-angiogenic factor inhibitors. To this end, HUVECs (2×10^5 cells/well) were cultured on fibronectin-coated 12-well plates in EBM-2. The cultured HUVECs were treated with or without 100 IU/ml EPO for 48 hours, and then exposed for 3 hours to (a) 0.25 mg/ml bevacizumab, (b) 100 nM of PD173074; an inhibitor of bFGF (Calbiochem, San Diego, Calif.), (c) 20 μM of tyrphostin AG 1296; a selective inhibitor of PDGF (Sigma), (d) a combination of bevacizumab, PD173074 and tyrphostin, and to (e) 100 nM wortmannin; a phosphatidylinositol 3-kinaz (PI 3-K) inhibitor (Sigma). Upon the completion of the experiment, the cells were washed with PBS and then incubated with 1 μCi/ml medium [^3H]-thymidine (NEN, Boston, Mass., USA) for 5 h at 37° C. Thereafter, 0.5 ml cold 10% Trichloroacetic acid (TCA) was added into each well for another 30 min at 4° C. To extract the ^3H-thymidine labeled DNA, 0.5 ml 1N NaOH was added to each well for 10 min at room temperature, and then 0.5 ml 1N HCl was added and mixed well. Samples of mixture solution (0.5 ml) was taken from each well and added to scintillation vials for the measurement of [^3H]-thymidine incorporation to DNA (cpm/mg protein). Duplicate cell counts were averaged for 3 experiments. Data were expressed as the percentage of control.
molecule,measurement,setting,value
vascular endothelial growth factor [VEGF],VEGF content in fat grafts,VEGF,"higher than, but not statistically different from"
same,extent of apoptosis (TUNEL),human fat grafts [1],greater than that in the PBS-treated fat grafts
same,expression levels of caspase 3 and cytochrome c,[2],no statistical differences
same,Cyst/Vacuoles,human fat grafts [3],3.3 ± 1.0
same,Fibrosis,human fat grafts [3],2.9 ± 0.7
same,Inflammation,human fat grafts [3],4.0 ± 1.2
same,Integration,human fat grafts [3],3.2 ± 0.9
same,microvascular density (MVD),"[4]; VEGF-treated (200 ng/100 μl PBS) vs PBS-treated fat grafts, week 15","higher than, but not statistically different from"
same,vessel morphology in fat grafts,[4]; VEGF-treated fat grafts (data not shown),unorganized vessel formation and perivascular hemorrhage
same,HUVEC tube formation,"[5]; 200 ng/ml VEGF, without bevacizumab (FIG. 7B)",significantly enhanced
same,fat graft Volume,human fat grafts [6],0.36 ± 0.2 mL
same,fat graft Weight,human fat grafts [6],0.35 ± 0.2 g
CCN(CC)CCCCNc1ncc2cc(-c3cc(OC)cc(OC)c3)c(NC(=O)NC(C)(C)C)nc2n1 [PD173074],HUVEC proliferation,[7],reduced HUVEC proliferation significantly
bevacizumab [reference compound],HUVEC proliferation,[7],reduced HUVEC proliferation significantly
same,HUVEC tube formation,[5]; 0.25 mg/ml bevacizumab in VEGF-treated HUVECs,substantially reduced
tyrphostin AG 1296,HUVEC proliferation,[7],reduced HUVEC proliferation significantly
